In patent US10821079B2, “PKC activators and combinations thereof” (Cognitive Research Enterprises, Inc., priority 2011, dated 2020):

Key:
synaptophysin = assay: Synaptophysin Western Blot in primary rat hippocampal neurons; assay type: cell-based; settings: ASPD + DCPLA-ME
Protocol: (§1) Cells were harvested in homogenizing buffer containing 10 mM Tris-Cl (pH 7.4), 1 mM PMSF (phenylmethylsulfonyl fluoride), 1 mM EGTA, 1 mM EDTA, 50 mM NaF, and 20 μM leupeptin and were lysed by sonication. The homogenate was centrifuged at 100,000×g for 15 min at 4° C. to obtain the cytosolic fraction (supernatant) and membrane (pellet). The pellet was resuspended in the homogenizing buffer by sonication. Protein concentration was measured using the Coomassie Plus (Bradford) Protein Assay kit (Pierce, USA). Following quantification, 20 μg of protein from each sample was subjected to SDS-PAGE analysis in 4-20% gradient Tris-Glycine gel (Invitrogen, USA). The separated protein was then transferred to nitrocellulose membrane. The membrane was blocked with BSA at room temperature for 15 min and was incubated with primary antibody over night at 4° C. After the incubation, it was washed three times with TBS-T (Tris Buffered saline-Tween 20) and further incubated with alkaline phosphatase conjugated secondary antibody (Jackson Immunoresearch Laboratories, USA) at 1:10,000 dilution for 45 min. The membrane was finally washed three times with TBS-T and developed using the 1-step NBT-BCIP substrate (Pierce, USA). Western Blot was imaged in the ImageQuant RT-ECL (GE Life Sciences, Piscataway, N.J.) and densitometric quantification was performed using the IMAL software (Blanchette Rockefeller Neurosciences Institute, Morgantown, W. Va.). For translocation assays, PKC activation was represented as the percentage of total protein in the membrane (membrane/cytosol+membrane).

PKC-ε = PKC-ε level in primary neurons (immunofluorescence, Western Blot); assay type: cell-based, rat; settings: ASPD-treated primary neurons, 100 nM DCPLA-ME
Protocol: as §1
Cells were grown in two chambered slides (Nunc, USA) at low density. For immunofluorescence staining, the cells were washed with PBS (pH 7.4) and fixed with 4% paraformaldehyde for 4 min. Following fixation, the cells were blocked and permeabilized with 5% serum and 0.3% Triton X 100 in 1×PBS for 30 min. […] Six individual fields at 63× oil lens magnification were analyzed for the mean fluorescence intensity (MFI) in each channel. […]

[1] = Water maze spatial learning and memory task, visible platform test; assay type: in vivo, Wistar rats
Protocol: Water maze spatial learning and memory task (2 training trials/day for 4 days) was used to evaluate effects of oral DCPLA-ME on learning and memory in rats. A visible platform test was conducted after the end of the experiments to evaluate whether the treatment might result in an altered sensorimotor activity and escape motivation.
Male adult Wistar rats (200-250 g) were housed in a temperature-controlled (20-24° C.) room for a week, allowed free access to food and water, and kept on a 12-h light/dark cycle. Rats were anesthetized with sodium pentobarbital (60 mg/kg i.p) and placed in a stereotactic apparatus (Kopf Instruments, Tujunga, Calif.). The core temperature of rats was monitored and kept constant (38.0±0.5° C.) with warming light and pad. Two stainless steel guide cannulas were placed with the tips positioned at the coordinates (anterior-posterior, 0.5 mm; lateral, 1.5 mm; horizontal, 3.2 mm), under aseptic conditions. At the end of surgery and under appropriate anesthesia, rats received (s.c.) banamine (1 mg/kg) and ketoprofen (5 mg/kg) in lactate/Ringer's solution. A 7-day recovery period was allowed before any further experimentation.
On the first day of experiments, all rats were randomly assigned to different groups and swam for 2 min in a 1.5-(diameter)×0.6-m (depth) pool (22±1° C.). On the following day, rats were trained in a two-trial per day task for four consecutive days. Each training trial lasted for up to 2 min, during which rats learned to escape from water by finding a hidden platform that was placed at a fixed location and submerged 1 cm below the water surface. The navigation of the rats was tracked by a video camera. The escape latency and the route of rats' swimming across the pool to the platform were recorded. The quadrant test (1 min) was performed after removing the platform, 24 hr after the last training trial.
DCPLA-ME was administered at either 5.3 or 16.0 mg/kg (intragastric, 8 doses total of 2/week with the first 6 doses before the water maze task and the seventh and eighth doses 0.5 hr after the second trial of the first and third training day).

PKC-α-RACK1 = target: T1, PKC-α-RACK1 (Homo sapiens, UniProt P17252); assay type: cell-based
T1 construct: host or cells: SH-SY5Y neuroblastoma cells
Protocol: Cells were grown in two chambered slides (Nunc, USA) at low density. For immunofluorescence staining, the cells were washed with PBS (pH 7.4) and fixed with 4% paraformaldehyde for 4 min. Following fixation, the cells were blocked and permeabilized with 5% serum and 0.3% Triton X 100 in 1×PBS for 30 min. The cells were washed three times with 1×PBS and incubated with primary antibodies for 1 hr at 1:100 dilution. The incubation slides were then washed again three times in 1×PBS and were incubated with the FITC anti-rabbit IgG and Rhodamine anti-mouse IgG for 1 hr at 1:400 dilution. The cells were further washed and treated with DAPI (4′,6-diamidino-2′-phenylindole, dihydrochloride) (Thermo Scientific, USA) to stain the nucleus. Finally, the slides were washed and mounted in Pro Long Gold antifade mounting solution (Invitrogen, USA) and were viewed under the LSM 710 Meta confocal microscope (Zeiss) at 350 nm, 490 nm, and 540 nm excitation and 470 nm, 525 nm, and 625 nm emission for DAPI, FITC, and Rhodamine respectively. Six individual fields at 63× oil lens magnification were analyzed for the mean fluorescence intensity (MFI) in each channel. The co-localization correlation generated by the ZEN software (Zeiss).
Coimmunoprecipitation was done following protocol described Besson et al. with slight modification. See Besson et al. (2002) J Biol Chem 277, 22073-22084. […]

[2] = cited from earlier work

SMILES	synaptophysin expression by Western Blot (in words) (synaptophysin)	PKC-ε protein level (Western Blot, in words) (PKC-ε)	memory retention, target quadrant ratio vs control ([1]; 5.3 mg/kg intragastric)	water maze learning, escape latency vs control ([1]; 5.3 mg/kg intragastric)	water maze learning, escape latency vs control ([1]; 16.0 mg/kg intragastric)	visible platform test, sensorimotor ability and escape motivation ([1]; oral)	PKC-α-RACK1 interaction by RACK1 immunoprecipitation (in words) (PKC-α-RACK1)	colocalization correlation R (PKC-α-RACK1)	toxicity ([2]; at 20 μg/week)	dose that may be associated with muscle pain ([2]; in vivo)
CCCCCC1CC1CC1CC1CCCCCCCC(=O)OC (stereo not shown) [DCPLA-ME, methyl 8-(2-((2-pentylcyclopropyl)methyl)cyclopropyl)octanoate]	maintained the expression similar to control	restored the PKC-ε protein level to normal	but not between the 5.3 mg/kg dose and control groups	did not reach a significant level	improved learning performance	did not affect rats' sensorimotor ability and motivation for an escape				
CCC/C=C/C=C/C(=O)O[C@H]1/C(=C/C(=O)OC)C[C@H]2C[C@H]([C@@H](C)O)OC(=O)C[C@H](O)C[C@@H]3C[C@H](OC(C)=O)C(C)(C)C(O)(C[C@@H]4C/C(=C/C(=O)OC)C[C@H](/C=C/C(C)(C)[C@]1(O)O2)O4)O3 [Bryostatin-1]							increased at 15 min but decreased below the control level at 30 min	0.58	no toxicity	more than 35 μg/week
